Like-named read-outs stand apart in the source and are kept apart here.
Assays:
HDAC2 = HDAC2 (Homo sapiens, UniProt Q92769); assay: HDAC biochemical activity measurement (fluorescent substrate deacetylation);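 also: HDAC2 enzyme with an acetyl-lysine fluorescent substrate, then developer added, fluorescence read at excitation 360 nm and emission 460 nm, inhibition measured across several compound concentrations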; details: 37° C. 30 minutes
[1] = test system: A549 (human lung cancer cells); assay: MTT cancer cell growth inhibition; type: cell-based; details: MTT
Method in brief: (§1)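 Absorbance at 570 nm of DMSO-dissolved formazan, formed during a 4 h MTT incubation, served as the viability measure. Cells had been exposed 72 h to drug at 10^−5–10^−10 M final; GI50 was calculated from these readings.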

[2] = test system: BGC-823 (human gastric cancer cells); assay: MTT cancer cell growth inhibition; type: cell-based; details: MTT
Method in brief: as §1

[3] = test system: Bel-7402 (human hepatoma cells); assay: MTT cancer cell growth inhibition; type: cell-based; details: MTT, 72 hours incubation, Bel-7402 cells, read-out: GI50 Bel-7402
Method in brief: as §1

[4] = test system: DU145 (human prostate cancer cells); assay: MTT cancer cell growth inhibition; type: cell-based; details: MTT
Method in brief: as §1

[5] = test system: H1975 (non-small cell lung adenocarcinoma); assay: MTT cancer cell growth inhibition; type: cell-based; details: MTT, 72 hours incubation, H1975 cells, read-out: GI50 H1975
Method in brief: as §1

[6] = test system: HCC827 (human non-small cell lung cancer cells); assay: MTT cancer cell growth inhibition; type: cell-based; details: MTT, 72 hours incubation, HCC827 cells, read-out: GI50 HCC827
Method in brief: as §1

[7] = test system: HT1080 (human fibrosarcoma cells); assay: MTT cancer cell growth inhibition; type: cell-based; details: MTT
Method in brief: as §1

[8] = test system: Hela (human cervical cancer cells); assay: MTT cancer cell growth inhibition; type: cell-based; details: MTT
Method in brief: as §1

[9] = test system: Huh-7 (human hepatoma cells); assay: MTT cancer cell growth inhibition; type: cell-based; details: MTT, 72 hours incubation, Huh-7 cells, read-out: GI50 Huh-7
Method in brief: as §1

[10] = test system: K562 (human leukemia cells); assay: MTT cancer cell growth inhibition; type: cell-based; details: MTT, 72 hours incubation, K562 cells, read-out: GI50 K562
Method in brief: as §1

[11] = test system: KBM-5 (human chronic myelogenous leukemia); assay: MTT cancer cell growth inhibition; type: cell-based; details: MTT, 72 hours incubation, KBM-5 cells, read-out: GI50 KBM-5
Method in brief: as §1

[12] = test system: KBM5-T315I (human chronic myelogenous leukemia); assay: MTT cancer cell growth inhibition; type: cell-based; details: MTT, 72 hours incubation, KBM5-T315I cells, read-out: GI50 KBM5-T315I
Method in brief: as §1

[13] = test system: MCF-7 (human breast cancer cells); assay: MTT cancer cell growth inhibition; type: cell-based
Method in brief: as §1

[14] = test system: MDA-MB-231 (breast cancer cells); assay: MTT cancer cell growth inhibition; type: cell-based
Method in brief: as §1

[15] = test system: MOLT-4 (human acute lymphoblastic leukemia cells); assay: MTT cancer cell growth inhibition; type: cell-based; details: MTT
Method in brief: as §1

[16] = test system: N-87 (human gastric cancer cells); assay: MTT cancer cell growth inhibition; type: cell-based; details: MTT, 72 hours incubation, N-87 cells, read-out: GI50 N-87
Method in brief: as §1

[17] = test system: PANC-1 (Pac-1, human pancreatic cancer cells); assay: MTT cancer cell growth inhibition; type: cell-based; details: MTT
Method in brief: as §1

[18] = test system: SGC-7901 (human gastric cancer cells); assay: MTT cancer cell growth inhibition; type: cell-based; details: MTT, 72 hours incubation, SGC-7901 cells, read-out: GI50 SGC-7901
Method in brief: as §1

[19] = test system: U937 (human leukemia cells); assay: MTT cancer cell growth inhibition; type: cell-based; details: MTT
Method in brief: as §1

[20] = test system: lncap (prostate cancer cells); assay: MTT cancer cell growth inhibition; type: cell-based; details: MTT
Method in brief: as §1

[21] = A549 cells, 72 hours incubation, read-out: GI50 A54
[22] = BGC-823 cells, 72 hours incubation, read-out: GI50 BG
[23] = DU145 cells, 72 hours incubation, read-out: GI50 Du1
[24] = HT1080 cells, 72 hours incubation, read-out: GI50 HT1
[25] = Hela cells, 72 hours incubation, read-out: GI50 Hela
[26] = MCF-7 cells, 72 hours incubation, read-out: GI50 MCF
[27] = read-out: GI50 MDA-MB-231, MTT, 72 hours incubation, MDA-MB-231 cells
[28] = MOLT-4 cells, 72 hours incubation, read-out: GI50 Mol
[29] = PANC-1 cells, 72 hours incubation, read-out: GI50 PAN
[30] = U937 cells, 72 hours incubation, read-out: GI50 U93
[31] = lncap cells, 72 hours incubation, read-out: GI50 lnca
[32] = Homo sapiens, MDA-MB-231, 72 h, read-out: GI50 MDA-MB-231, MTT, 72 hours incubation, MDA-MB-231 cells

Sequence of HDAC2 (Q92769 whole entry, species assumed): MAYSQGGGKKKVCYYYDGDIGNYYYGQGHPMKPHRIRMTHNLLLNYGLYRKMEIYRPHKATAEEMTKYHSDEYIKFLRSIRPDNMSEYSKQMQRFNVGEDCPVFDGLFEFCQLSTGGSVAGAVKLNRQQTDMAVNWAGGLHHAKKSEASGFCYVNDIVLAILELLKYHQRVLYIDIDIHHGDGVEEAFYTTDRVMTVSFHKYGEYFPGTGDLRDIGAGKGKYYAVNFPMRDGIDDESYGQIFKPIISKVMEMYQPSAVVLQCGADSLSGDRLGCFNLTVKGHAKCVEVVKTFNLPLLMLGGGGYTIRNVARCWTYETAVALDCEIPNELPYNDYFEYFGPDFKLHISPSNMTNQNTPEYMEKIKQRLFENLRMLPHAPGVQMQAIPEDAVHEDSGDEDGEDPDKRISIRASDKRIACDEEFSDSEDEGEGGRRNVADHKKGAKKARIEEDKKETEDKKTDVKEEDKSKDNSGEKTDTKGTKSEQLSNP

C/C=C1\NC(=O)c2cc(SC)cc(n2)CNC(=O)C[C@@H](/C=C/CCSC(C)=O)OC(=O)[C@H](C(C)C)NC1=O [Compound 224]
IC50 (HDAC2): 335 nM | GI50 [1, 21]: 50 nM | GI50 [2, 22]: 30 nM | GI50 [3]: 23 nM | GI50 [4, 23]: 50 nM | GI50 [5]: 96 nM | GI50 [6]: 52 nM | GI50 [7, 24]: 90 nM | GI50 [8, 25]: 60 nM | GI50 [9]: 36 nM | GI50 [10]: 23 nM | GI50 [11]: 16 nM | GI50 [12]: 63 nM | GI50 [13, 26]: 40 nM | GI50 [14, 27]: 62 nM | GI50 [15, 28]: 30 nM | GI50 [16]: 17 nM | GI50 [17, 29]: 60 nM | GI50 [18]: 93 nM | GI50 [19, 30]: 30 nM | GI50 [20, 31]: 30 nM

C/C=C1\NC(=O)c2cccc(n2)CNC(=O)C[C@@H](/C=C/CCSC(=O)CCCCCCC)OC(=O)[C@H](CC(C)C)NC1=O [Compound 241]
IC50 (HDAC2): 36 nM | GI50 ([1]; Homo sapiens, A549, 72 h, A549 cells, 72 hours incubation, read-out: GI50 A54): 110 nM | GI50 ([1]; Homo sapiens, A549, 72 h, 72 hours, present invention, read-out: GI50 A549, a): 110 nM | GI50 ([2]; Homo sapiens, BGC-823, 72 h, BGC-823 cells, 72 hours incubation, read-out: GI50 BG): 100 nM | GI50 ([2]; Homo sapiens, BGC-823, 72 h, 72 hours, present invention, read-out: GI50 BGC823, a): 100 nM | GI50 ([3]; Homo sapiens, Bel-7402, 72 h): 47 nM | GI50 ([4]; Homo sapiens, DU-145, 72 h, 72 hours, present invention, read-out: GI50 Du145, a): 3 nM | GI50 ([5]; Homo sapiens, NCI-H1975, 72 h): 51 nM | GI50 ([6]; Homo sapiens, HCC827, 72 h): 34 nM | GI50 ([7]; Homo sapiens, HT-1080, 72 h, HT1080 cells, 72 hours incubation, read-out: GI50 HT1): 30 nM | GI50 ([7]; Homo sapiens, HT-1080, 72 h, 72 hours, present invention, read-out: GI50 HT1080, a): 34 nM | GI50 ([8]; Homo sapiens, HeLa, 72 h, Hela cells, 72 hours incubation, read-out: GI50 Hela): 11 nM | GI50 ([8]; Homo sapiens, HeLa, 72 h, 72 hours, present invention, read-out: GI50 Hela, a): 11 nM | GI50 ([9]; Homo sapiens, Huh-7, 72 h): 64 nM | GI50 ([10]; Homo sapiens, K562, 72 h): 41 nM | GI50 ([11]; Homo sapiens, KBM5, 72 h): 71 nM | GI50 ([12]; Homo sapiens, 72 h): 82 nM | GI50 ([13]; Homo sapiens, MCF7, 72 h, 72 hours, present invention, read-out: GI50 MCF7, a): 28 nM | GI50 ([13]; Homo sapiens, MCF7, 72 h, MCF-7 cells, 72 hours incubation, read-out: GI50 MCF): 20 nM | GI50 [14, 32]: 29 nM | GI50 ([15]; Homo sapiens, MOLT-4, 72 h, 72 hours, present invention, read-out: GI50 Molt-4, a): 3 nM | GI50 ([16]; Homo sapiens, 72 h): 57 nM | GI50 ([17]; Homo sapiens, PANC-1, 72 h, 72 hours, present invention, read-out: GI50 PANC-1, a): 170 nM | GI50 ([17]; Homo sapiens, PANC-1, 72 h, PANC-1 cells, 72 hours incubation, read-out: GI50 PAN): 170 nM | GI50 ([18]; Homo sapiens, SGC-7901, 72 h): 63 nM | GI50 ([19]; Homo sapiens, U-937, 72 h, 72 hours, present invention, read-out: GI50 U937, a): 7 nM | GI50 ([20]; Homo sapiens, LNCaP, 72 h, 72 hours, present invention, read-out: GI50 lncap, a): 25 nM | GI50 ([20]; Homo sapiens, LNCaP, 72 h, lncap cells, 72 hours incubation, read-out: GI50 lnca): 20 nM

C/C=C1\NC(=O)c2ncc(SC)c(n2)CNC(=O)C[C@@H](/C=C/CCSC(C)=O)OC(=O)[C@H](C(C)C)NC1=O [Compound 217]
IC50 (HDAC2): 43 nM | GI50 [1, 21]: 70 nM | GI50 [2, 22]: 30 nM | GI50 [3]: 37 nM | GI50 [4, 23]: 20 nM | GI50 [5]: 43 nM | GI50 [6]: 29 nM | GI50 [7, 24]: 20 nM | GI50 [8, 25]: 10 nM | GI50 [9]: 19 nM | GI50 [10]: 62 nM | GI50 [11]: 41 nM | GI50 [12]: 83 nM | GI50 [13, 26]: 60 nM | GI50 [14, 27]: 19 nM | GI50 [15, 28]: 90 nM | GI50 [16]: 57 nM | GI50 [17, 29]: 70 nM | GI50 [18]: 28 nM | GI50 [19, 30]: 90 nM | GI50 [20, 31]: 30 nM

C/C=C1\NC(=O)c2cc(F)cc(n2)CNC(=O)C[C@@H](/C=C/CCSC(=O)CCCCCCC)OC(=O)[C@H](C)NC1=O [Compound 61]
IC50 (HDAC2): 38 nM | GI50 ([1]; Homo sapiens, A549, 72 h, 72 hours incubation, read-out: GI50 A54): 30 nM | GI50 ([2]; Homo sapiens, BGC-823, 72 h, 72 hours incubation, read-out: GI50 BG): 70 nM | GI50 ([3]; Homo sapiens, Bel-7402, 72 h): 67 nM | GI50 ([4]; Homo sapiens, DU-145, 72 h, 72 hours incubation, read-out: GI50 Du1): 30 nM | GI50 ([5]; Homo sapiens, NCI-H1975, 72 h): 53 nM | GI50 ([6]; Homo sapiens, HCC827, 72 h): 67 nM | GI50 ([7]; Homo sapiens, HT-1080, 72 h, 72 hours incubation, read-out: GI50 HT1): 60 nM | GI50 ([8]; Homo sapiens, HeLa, 72 h, 72 hours incubation, read-out: GI50 Hela): 80 nM | GI50 ([9]; Homo sapiens, Huh-7, 72 h): 38 nM | GI50 ([10]; Homo sapiens, K562, 72 h): 34 nM | GI50 ([11]; Homo sapiens, KBM5, 72 h): 81 nM | GI50 ([12]; Homo sapiens, 72 h): 94 nM | GI50 ([13]; Homo sapiens, MCF7, 72 h, 72 hours incubation, read-out: GI50 MCF): 90 nM | GI50 [14, 32]: 38 nM | GI50 ([15]; Homo sapiens, MOLT-4, 72 h, 72 hours incubation, read-out: GI50 Mol): 30 nM | GI50 ([16]; Homo sapiens, 72 h): 75 nM | GI50 ([17]; Homo sapiens, PANC-1, 72 h, 72 hours incubation, read-out: GI50 PAN): 60 nM | GI50 ([18]; Homo sapiens, SGC-7901, 72 h): 38 nM | GI50 ([19]; Homo sapiens, U-937, 72 h, 72 hours incubation, read-out: GI50 U93): 50 nM | GI50 ([20]; Homo sapiens, LNCaP, 72 h, 72 hours incubation, read-out: GI50 lnca): 30 nM

From patent US10065990B2, “Cyclic peptide compound, and preparation method, pharmaceutical composition and use thereof” (HANGZHOU GUANYU BIO-MEDICAL CO., LTD, priority 2013, dated 2018)
